Converted amounts (≈) assume the structure as drawn.
test system: S. aureus; test: Minimum inhibitory concentrations (MICs) for S. aureus of exemplary compounds (Table 2); format: cell-based; settings: Staphylococcus aureus, minimum inhibitory concentrations for S. aureus; read-out: MICs
Outline: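 Growth of S. aureus in media with or without compound, by broth microdilution in microtiter trays following NCCLS M7-A5 guidelines. Values are MICs in μg/mL.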

Compared with `CC(=O)NC[C@H]1CN(c2ccc(-c3ccc(CNC(C)c4ccncc4)cc3)c(F)c2)C(=O)O1` (mixture of isomers) [Compound 4159, N-(3-{2-Fluoro-4′-[(1-pyridin-4-(R/S)-yl-ethylamino)-methyl]-biphenyl-4-yl}-2-oxo-oxazolidin-5-(S)-ylmethyl)-acetamide], `CC(=O)NC[C@H]1CN(c2ccc(-c3ccc([C@H](CO)NCc4ccncc4)cc3)c(F)c2)C(=O)O1` [Compound 4202, N-[3-(2-Fluoro-4′-{2-hydroxy-1-(R)-[(pyridin-4-ylmethyl)-amino]-ethyl}-biphenyl-4-yl)-2-oxo-oxazolidin-5-(S)-ylmethyl]-acetamide] is 2-fold higher in MIC: 2 µg/mL (≈ 4.32 µM) for the first, 4 µg/mL (≈ 8.36 µM) for the second.

Compared with `CC(=O)NC[C@H]1CN(c2ccc(-c3ccc([C@H](O)CN4CCCC(F)(F)C4)cc3)c(F)c2)C(=O)O1` [Compound 1075, N-(3-{4′-[2-(3,3-Difluoro-piperidin-1-yl)-1-(S)-hydroxy-ethyl]-2-fluoro-biphenyl-4-yl}-2-oxo-oxazolidin-5-(S)-ylmethyl)-acetamide], `CC(=O)NC[C@H]1CN(c2ccc(-c3ccc(Cn4cncn4)cc3)c(F)c2)C(=O)O1` [Compound 1037, N-[3-(2-Fluoro-4′-[1,2,4]triazol-1-ylmethyl-biphenyl-4-yl)-2-oxo-oxazolidin-5-(S)-ylmethyl]-acetamide] is 4-fold lower in MIC: 2 µg/mL (≈ 4.07 µM) for the first, 0.5 µg/mL (≈ 1.22 µM) for the second.

`CC(=O)NC[C@H]1CN(c2ccc(-c3ccc(CSc4ncc[nH]4)cc3)c(F)c2)C(=O)O1` [Compound 2032, N-{3-[2-Fluoro-4′-(1H-imidazol-2-ylsulfanylmethyl)-biphenyl-4-yl]-2-oxo-oxazolidin-5-(S)-ylmethyl}-acetamide] and `CC(=O)NC[C@H]1CN(c2ccc(-c3ccc(CSc4nccs4)cc3)c(F)c2)C(=O)O1` [Compound 2030, N-{3-[2-Fluoro-4′-(thiazol-2-ylsulfanylmethyl)-biphenyl-4-yl]-2-oxo-oxazolidin-5-(S)-ylmethyl}-acetamide] are the same in MIC: 1 µg/mL (≈ 2.27 µM) for the first, 1 µg/mL (≈ 2.19 µM) for the second.

First: CC(=O)NC[C@H]1CN(c2ccc(-c3ccc(C(=O)NCc4ccccn4)c(F)c3)c(F)c2)C(=O)O1 [Compound 4190, 4′-[5-(S)-(Acetylamino-methyl)-2-oxo-oxazolidin-3-yl]-3,2′-difluoro-biphenyl-4-carboxylic acid (pyridin-2-ylmethyl)-amide]
Second: CC(=O)NC[C@H]1CN(c2ccc(-c3ccc(C(=O)NCc4ncon4)cc3)c(F)c2)C(=O)O1 [Compound 4224, 4′-[5-(S)-(Acetylamino-methyl)-2-oxo-oxazolidin-3-yl]-2′-fluoro-biphenyl-4-carboxylic acid ([1,2,4]oxadiazol-3-ylmethyl)-amide]
The MIC of the first is 2-fold higher: 1 µg/mL (≈ 2.08 µM) for the first, 0.5 µg/mL (≈ 1.1 µM) for the second.

Compared with `CC(=O)NC[C@H]1CC(c2ccc(-c3ccc(CNC(=O)c4ccccc4C(=O)O)cc3)cc2)=NO1` [Compound 4106, N-{4′-[5-(R)-(Acetylamino-methyl)-4,5-dihydro-isoxazol-3-yl]-biphenyl-4-ylmethyl}-phthalamic acid], `CC(=O)NC[C@H]1CN(c2ccc(-c3ccc(CNC(=O)/C=C/c4cccnc4)cc3)c(F)c2)C(=O)O1` [Compound 4002, N-{4′-[5-(S)-(Acetylamino-methyl)-2-oxo-oxazolidin-3-yl]-2′-fluoro-biphenyl-4-ylmethyl}-3-pyridin-3-yl-acrylamide] is 32-fold lower in MIC: 128 µg/mL (≈ 271 µM) for the first, 4 µg/mL (≈ 8.19 µM) for the second.

`CC(=O)NC[C@H]1CN(c2ccc(-c3ccc(CNC[C@H](O)CSc4nnc[nH]4)cc3)c(F)c2)C(=O)O1` [Compound 5011] and `CC(=O)NC[C@H]1CN(c2ccc(-c3ccc(CNCc4c[nH]c(C)n4)cc3)c(F)c2)C(=O)O1` [Compound 4165, N-[3-(2-Fluoro-4′-{[(2-methyl-1H-imidazol-4-ylmethyl)-amino]-methyl}-biphenyl-4-yl)-2-oxo-oxazolidin-5-(S)-ylmethyl]-acetamide] are the same in MIC: 4 µg/mL (≈ 7.77 µM) for the first, 4 µg/mL (≈ 8.86 µM) for the second.

`CC(=O)NC[C@H]1CN(c2ccc(-c3ccc(CNCc4ncsn4)cc3)c(F)c2)C(=O)O1` [Compound 4206, N-[3-(2-Fluoro-4′-{[([1,2,4]thiadiazol-3-ylmethyl)-amino]-methyl}-biphenyl-4-yl)-2-oxo-oxazolidin-5-(S)-ylmethyl]-acetamide] and `CC(=O)NC[C@H]1CN(c2ccc(-c3ccc(CNCc4nccs4)cc3)c(F)c2)C(=O)O1` [Compound 4074, N-[3-(2-Fluoro-4′-{[(thiazol-2-ylmethyl)-amino]-methyl}-biphenyl-4-yl)-2-oxo-oxazolidin-5-(S)-ylmethyl]-acetamide] are the same in MIC: 1 µg/mL (≈ 2.2 µM) for the first, 1 µg/mL (≈ 2.2 µM) for the second.

Going from `O=C(NC[C@H]1CN(c2ccc(-c3ccc(Cn4cnnn4)cc3)c(F)c2)C(=O)O1)C(Cl)Cl` [Compound 1034, 2,2-Dichloro-N-[3-(2-fluoro-4′-tetrazol-1-ylmethyl-biphenyl-4-yl)-2-oxo-oxazolidin-5-(S)-ylmethyl]-acetamide] to `CC(=O)NC[C@H]1CN(c2ccc(-c3ccc(Cn4cc(C)cn4)cc3)c(F)c2)C(=O)O1` [Compound 1052, N-{3-[2-Fluoro-4′-(4-methyl-pyrazol-1-ylmethyl)-biphenyl-4-yl]-2-oxo-oxazolidin-5-(S)-ylmethyl}-acetamide], the MIC rises from 0.5 µg/mL (≈ 1.04 µM) to 1 µg/mL (≈ 2.37 µM) (2-fold).

Going from `CC(=O)NC[C@H]1CN(c2ccc(-c3ccc(CNCc4cnn[nH]4)nc3)c(F)c2)C(=O)O1` [Compound 4277, N-{3-[3-Fluoro-4-(6-{[(3H-[1,2,3]triazol-4-ylmethyl)-amino]-methyl}-pyridin-3-yl)-phenyl]-2-oxo-oxazolidin-5-(S)-ylmethyl}-acetamide] to `CC(=O)NC[C@H]1CN(c2ccc(-c3ccc(CNCc4ccc(Br)cn4)cc3)c(F)c2)C(=O)O1` [Compound 4182, N-[3-(4′-{[(5-Bromo-pyridin-2-ylmethyl)-amino]-methyl}-2-fluoro-biphenyl-4-yl)-2-oxo-oxazolidin-5-(S)-ylmethyl]-acetamide], the MIC falls from 4 µg/mL (≈ 9.1 µM) to 2 µg/mL (≈ 3.79 µM) (2-fold).

Compared with `CC(=O)NC[C@H]1CN(c2ccc(-c3ccc(CNCc4cc5ccccc5n4C)cc3)c(F)c2)C(=O)O1` [Compound 4049, N-[3-(2-Fluoro-4′-{[(1-methyl-1H-indol-2-ylmethyl)-amino]-methyl}-biphenyl-4-yl)-2-oxo-oxazolidin-5-(S)-ylmethyl]-acetamide], `CC(=O)NC[C@H]1CN(c2ccc(-c3ccc(CNCc4ccc5ncccc5c4)cc3)c(F)c2)C(=O)O1` [Compound 4071, N-[3-(2-Fluoro-4′-{[(quinolin-6-ylmethyl)-amino]-methyl}-biphenyl-4-yl)-2-oxo-oxazolidin-5-(S)-ylmethyl]-acetamide] is 2-fold higher in MIC: 1 µg/mL (≈ 2 µM) for the first, 2 µg/mL (≈ 4.01 µM) for the second.

First: COc1nc(C)c(/C=C/C(=O)NCc2ccc(-c3ccc(N4C[C@H](CNC(C)=O)OC4=O)cc3F)cc2)c(O)n1 [Compound 4004, N-{4′-[5-(S)-(Acetylamino-methyl)-2-oxo-oxazolidin-3-yl]-2′-fluoro-biphenyl-4-ylmethyl}-3-(4-hydroxy-2-methoxy-6-methyl-pyrimidin-5-yl)-acrylamide]
Second: COc1nc(C)c(C=CC(=O)NCc2ccc(-c3ccc(N4C[C@H](CNC(C)=O)OC4=O)cc3F)cc2)c(OC)n1 [Compound 4003, N-{4′-[5-(S)-(Acetylamino-methyl)-2-oxo-oxazolidin-3-yl]-2′-fluoro-biphenyl-4-ylmethyl}-3-(2,4-dimethoxy-6-methyl-pyrimidin-5-yl)-acrylamide]
The MIC of the first is 64-fold lower: 2 µg/mL (≈ 3.64 µM) for the first, 128 µg/mL (≈ 227 µM) for the second.

Compared with `CC(=O)NC[C@H]1CN(c2ccc(-c3ccc(CNCc4ccncc4)cc3)nc2)C(=O)O1` [Compound 4134, N-{2-Oxo-3-[6-(4-{[(pyridin-4-ylmethyl)-amino]-methyl}-phenyl)-pyridin-3-yl]-oxazolidin-5-(S)-ylmethyl}-acetamide], `CC(=O)NC[C@H]1CN(c2ccc(-c3ccc(Cn4ccnc4)cc3)c(F)c2)C(=O)O1` [Compound 1008, N-[3-(2-Fluoro-4′-imidazol-1-ylmethyl-biphenyl-4-yl)-2-oxo-oxazolidin-5-(S)-ylmethyl]-acetamide] is 32-fold lower in MIC: 16 µg/mL (≈ 37.1 µM) for the first, 0.5 µg/mL (≈ 1.22 µM) for the second.

Compared with `CC(=O)NC[C@H]1CN(c2ccc(-c3ccc(CNS(=O)(=O)c4cccc5cccnc45)cc3)c(F)c2)C(=O)O1` [Compound 2051, N-(3-{2-Fluoro-4′-[(quinoline-8-sulfonylamino)-methyl]-biphenyl-4-yl}-2-oxo-oxazolidin-5-(S)-ylmethyl)-acetamide], `CC(=O)NC[C@H]1CN(c2ccc(-c3ccc(C[S+]([O-])c4ncc[nH]4)cc3)c(F)c2)C(=O)O1` (stereo partly drawn) [Compound 2038, N-{3-[2-Fluoro-4′-(1H-imidazole-2-sulfinylmethyl)-biphenyl-4-yl]-2-oxo-oxazolidin-5-(S)-ylmethyl}-acetamide] is 2-fold lower in MIC: 4 µg/mL (≈ 7.29 µM) for the first, 2 µg/mL (≈ 4.38 µM) for the second.

First: O=C1O[C@@H](Cn2ccnn2)CN1c1ccc(-c2ccc(CNCCSc3cnn[nH]3)cc2)c(F)c1 [Compound 5007, 3-(2-Fluoro-4′-{[2-(3H-[1,2,3]triazol-4-ylsulfanyl)-ethylamino]-methyl}-biphenyl-4-yl)-5-(R)-[1,2,3]triazol-1-ylmethyl-oxazolidin-2-one]
Second: CC(=O)NC[C@H]1CN(c2ccc(-c3ccc(CCn4ccnn4)cc3)c(F)c2)C(=O)O1 [Compound 1001, N-{3-[2-Fluoro-4′-(2-[1,2,3]triazol-1-yl-ethyl)-biphenyl-4-yl]-2-oxo-oxazolidin-5-(S)-ylmethyl}-acetamide]
The MIC of the first is 8-fold lower: 0.25 µg/mL (≈ 0.506 µM) for the first, 2 µg/mL (≈ 4.72 µM) for the second.

First: CC(=O)NC[C@H]1CN(c2ccc(-c3ccc(CSc4nnc(N)[nH]4)cc3)c(F)c2)C(=O)O1 [Compound 2028, N-{3-[4′-(5-Amino-4H-[1,2,4]triazol-3-ylsulfanylmethyl)-2-fluoro-biphenyl-4-yl]-2-oxo-oxazolidin-5-(S)-ylmethyl}-acetamide]
Second: CC(=O)NC[C@H]1CN(c2ccc(-c3ccc(CNC(=O)/C=C/c4cncn(C)c4=O)cc3)c(F)c2)C(=O)O1 [Compound 4007, N-{4′-[5-(S)-(Acetylamino-methyl)-2-oxo-oxazolidin-3-yl]-2′-fluoro-biphenyl-4-ylmethyl}-3-(1-methyl-6-oxo-1,6-dihydro-pyrimidin-5-yl)-acrylamide]
The MIC of the first is 4-fold lower: 0.25 µg/mL (≈ 0.548 µM) for the first, 1 µg/mL (≈ 1.92 µM) for the second.

`CC(=O)NC[C@H]1CN(c2ccc(-c3ccc([C@H](O)CN(Cc4ccccc4)C(C)=O)cc3)c(F)c2)C(=O)O1` [Compound 4250, N-(2-{4′-[5-(S)-(Acetylamino-methyl)-2-oxo-oxazolidin-3-yl]-2′-fluoro-biphenyl-4-yl}-2-(S)-hydroxy-ethyl)-N-benzyl-acetamide] gave an MIC of 2 µg/mL (≈ 3.85 µM).
